Source: patent US10045981B2, “Selective kinase inhibitors” (JAKPHARM, LLC, priority 2015, dated 2018)
Where two headings read alike, the source gives them in different places. Marks after values point to notes of the source that are not given here.

What was measured:
JAK3 [1] = biological target: T1, JAK3 (Homo sapiens, UniProt P52333); test: JAK3 biochemical IC50; settings: for JAK3 selectivity vs. STAT5: STAT5 IC50 relative to JAK3 IC50; for selectivity for JAK3 compared to JAK1, JAK2, and TYK2 (in words): two independent analyses
T1 sequence (P52333 1-1124): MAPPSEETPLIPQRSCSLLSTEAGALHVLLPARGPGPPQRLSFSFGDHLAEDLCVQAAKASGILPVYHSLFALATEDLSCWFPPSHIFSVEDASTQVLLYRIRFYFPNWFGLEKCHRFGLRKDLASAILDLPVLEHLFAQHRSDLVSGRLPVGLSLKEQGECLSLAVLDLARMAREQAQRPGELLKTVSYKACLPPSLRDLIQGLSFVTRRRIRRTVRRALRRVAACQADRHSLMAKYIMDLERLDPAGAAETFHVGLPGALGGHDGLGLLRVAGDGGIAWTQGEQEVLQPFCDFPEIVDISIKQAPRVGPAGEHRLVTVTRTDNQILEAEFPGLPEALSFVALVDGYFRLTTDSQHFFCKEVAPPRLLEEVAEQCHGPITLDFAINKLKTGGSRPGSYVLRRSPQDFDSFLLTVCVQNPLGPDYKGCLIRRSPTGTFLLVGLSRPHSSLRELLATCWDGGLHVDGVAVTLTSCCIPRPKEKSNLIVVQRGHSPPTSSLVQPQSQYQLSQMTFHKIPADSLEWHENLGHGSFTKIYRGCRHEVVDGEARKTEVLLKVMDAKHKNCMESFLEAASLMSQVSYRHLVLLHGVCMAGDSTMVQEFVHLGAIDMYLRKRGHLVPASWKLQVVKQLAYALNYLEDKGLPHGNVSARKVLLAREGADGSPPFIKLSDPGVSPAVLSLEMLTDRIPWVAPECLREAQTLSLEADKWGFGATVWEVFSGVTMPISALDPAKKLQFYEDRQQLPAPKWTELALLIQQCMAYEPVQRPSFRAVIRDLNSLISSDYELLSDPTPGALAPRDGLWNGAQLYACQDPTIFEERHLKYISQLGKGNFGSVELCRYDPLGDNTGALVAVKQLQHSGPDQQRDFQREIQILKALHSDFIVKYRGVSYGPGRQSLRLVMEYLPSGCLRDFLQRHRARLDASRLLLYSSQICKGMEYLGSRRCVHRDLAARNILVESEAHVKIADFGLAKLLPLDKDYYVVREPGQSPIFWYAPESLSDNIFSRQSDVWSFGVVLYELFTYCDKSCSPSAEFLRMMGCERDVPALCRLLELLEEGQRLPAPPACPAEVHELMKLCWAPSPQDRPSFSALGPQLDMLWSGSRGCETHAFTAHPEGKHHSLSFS

STAT5 = STAT5 inhibition IC50; type: cell-based
CK1g1 = CK1g1 (Homo sapiens, UniProt Q9HCP0); test: Exemplary Kinase Panel Analysis; type: biochemical; settings: 10 concentrations, 3-fold serial dilutions starting at 5 μM, duplicate
CK1g2 = CK1g2 (Homo sapiens, UniProt P78368); test: Exemplary Kinase Panel Analysis; type: biochemical; settings: 10 concentrations, 3-fold serial dilutions starting at 5 μM, duplicate
EGFR (d746-750) = EGFR (d746-750) (Homo sapiens, UniProt P00533, DEL746-750); test: Exemplary Kinase Panel Analysis; type: biochemical; settings: 10 concentrations, 3-fold serial dilutions starting at 5 μM, duplicate
EGFR (d746-750/T790M) = EGFR (d746-750/T790M) (Homo sapiens, UniProt P00533, DEL746-750/T790M); test: Exemplary Kinase Panel Analysis; type: biochemical; settings: 10 concentrations, 3-fold serial dilutions starting at 5 μM, duplicate
EGFR (d752-759) = EGFR (d752-759) (Homo sapiens, UniProt P00533, DEL752-759); test: Exemplary Kinase Panel Analysis; type: biochemical; settings: 10 concentrations, 3-fold serial dilutions starting at 5 μM, duplicate
EGFR = EGFR (Homo sapiens, UniProt P00533); test: Exemplary Kinase Panel Analysis; type: biochemical; settings: 10 concentrations, 3-fold serial dilutions starting at 5 μM, duplicate
Method: Kinase Panel: These compounds were tested against 439 kinases. […]. […] The results are presented in Table 2 below, where empty cells indicate no inhibition or compound activity that could not be fit to an IC50 curve.

EGFR (L858R, T790M) = EGFR (L858R, T790M) (Homo sapiens, UniProt P00533, L858R/T790M); test: Exemplary Kinase Panel Analysis; type: biochemical; settings: 10 concentrations, 3-fold serial dilutions starting at 5 μM, duplicate
EGFR (L861Q) = EGFR (L861Q) (Homo sapiens, UniProt P00533, L861Q); test: Exemplary Kinase Panel Analysis; type: biochemical; settings: 10 concentrations, 3-fold serial dilutions starting at 5 μM, duplicate
JAK3 [2] = biological target: T1, JAK3; test: Exemplary Kinase Panel Analysis; type: biochemical; settings: 10 concentrations, 3-fold serial dilutions starting at 5 μM, duplicate
[3] = Mouse Liver Microsomes stability; type: in vitro ADME; settings: read-out: Mouse Liver Microsomes t½
CYP2C19 = CYP2C19 (Homo sapiens, UniProt P33261); test: CYP2C19 inhibition LCMS; type: in vitro ADME
CYP3A4 = CYP3A4 (Homo sapiens, UniProt P08684); test: CYP3A4 inhibition testosterone LCMS; type: in vitro ADME; settings: read-out: CYP3A4 K50 [uM] testosterone LCMS
[4] = Human Plasma protein binding; type: in vitro ADME
[5] = Cytotoxicity Screening L929 Fibroblasts; type: cell-based; settings: mouse, read-out: 50% Maximal Effect Concentration (AC50)
Excerpt: (§1) The cytotoxicity screening panel included cell count, nuclear size, DNA structure, cell membrane permeability, mitochondrial mass, mitochondrial membrane potential, and cytochrome C release.

L929 Fibroblasts = test: Cytotoxicity Screening L929 Fibroblasts; type: cell-based
Excerpt: as §1

[6] = Original analysis, read-out: JAK3 IC50 (uM) Original
[7] = Table 3, first session (before /), read-out: JAK3 biochemical IC50
[8] = Table 3, second session (after /), read-out: JAK3 biochemical IC50
[9] = re-test, read-out: JAK3 IC50 (uM) re-test
[10] = Original analysis, read-out: STAT5 IC50 (uM) Original
[11] = Table 3, first session (before /), read-out: STATS inhibition IC50
[12] = Table 3, second session (after /), read-out: STATS inhibition IC50
[13] = re-test, read-out: STAT5 IC50 (uM) re-test

CYP3A4, sequence (P08684 whole entry): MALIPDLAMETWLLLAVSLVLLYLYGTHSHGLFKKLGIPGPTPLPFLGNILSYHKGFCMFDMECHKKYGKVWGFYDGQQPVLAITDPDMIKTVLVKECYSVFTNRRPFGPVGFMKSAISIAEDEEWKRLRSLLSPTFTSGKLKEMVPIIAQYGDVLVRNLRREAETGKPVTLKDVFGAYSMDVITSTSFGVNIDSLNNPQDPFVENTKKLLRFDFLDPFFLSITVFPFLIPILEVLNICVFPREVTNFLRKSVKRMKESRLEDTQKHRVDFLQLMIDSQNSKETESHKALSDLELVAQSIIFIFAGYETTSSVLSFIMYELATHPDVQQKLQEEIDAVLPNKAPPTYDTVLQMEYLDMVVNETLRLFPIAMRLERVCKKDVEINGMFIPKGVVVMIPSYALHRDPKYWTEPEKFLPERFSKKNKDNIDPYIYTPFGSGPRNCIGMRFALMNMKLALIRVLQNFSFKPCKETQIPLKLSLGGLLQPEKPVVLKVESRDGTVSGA
CYP2C19, sequence (P33261 whole entry): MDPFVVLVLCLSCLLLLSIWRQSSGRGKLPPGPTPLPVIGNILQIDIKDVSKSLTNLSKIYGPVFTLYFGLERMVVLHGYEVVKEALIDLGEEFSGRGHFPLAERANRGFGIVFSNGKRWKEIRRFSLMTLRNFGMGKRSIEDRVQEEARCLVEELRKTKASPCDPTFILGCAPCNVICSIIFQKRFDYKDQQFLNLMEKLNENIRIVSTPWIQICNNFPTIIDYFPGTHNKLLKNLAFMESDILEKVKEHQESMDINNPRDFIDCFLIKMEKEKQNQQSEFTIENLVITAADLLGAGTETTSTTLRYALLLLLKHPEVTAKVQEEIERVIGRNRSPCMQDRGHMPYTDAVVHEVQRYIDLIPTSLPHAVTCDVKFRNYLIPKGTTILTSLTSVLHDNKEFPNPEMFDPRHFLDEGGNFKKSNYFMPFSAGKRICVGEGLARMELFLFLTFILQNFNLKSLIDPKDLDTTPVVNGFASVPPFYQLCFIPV
EGFR (d746-750/T790M), sequence (P00533 with tags, fused parts or gaps DEL746-750/T790M limits assumed): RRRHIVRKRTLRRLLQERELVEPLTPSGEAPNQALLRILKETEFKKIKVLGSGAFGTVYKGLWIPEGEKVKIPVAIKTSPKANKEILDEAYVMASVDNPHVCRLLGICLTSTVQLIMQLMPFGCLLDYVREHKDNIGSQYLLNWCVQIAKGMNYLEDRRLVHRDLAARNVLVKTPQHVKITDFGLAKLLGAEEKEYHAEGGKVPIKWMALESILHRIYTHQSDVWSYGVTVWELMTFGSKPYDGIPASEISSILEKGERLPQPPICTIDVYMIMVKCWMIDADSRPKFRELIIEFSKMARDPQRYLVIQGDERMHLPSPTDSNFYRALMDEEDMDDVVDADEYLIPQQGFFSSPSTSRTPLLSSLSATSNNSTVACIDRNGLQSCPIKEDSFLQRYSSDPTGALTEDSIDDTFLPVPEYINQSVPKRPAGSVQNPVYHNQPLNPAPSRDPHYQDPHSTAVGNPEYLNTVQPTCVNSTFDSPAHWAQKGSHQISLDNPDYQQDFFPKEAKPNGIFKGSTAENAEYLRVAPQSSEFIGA
CK1g2, sequence (P78368 whole entry, species assumed): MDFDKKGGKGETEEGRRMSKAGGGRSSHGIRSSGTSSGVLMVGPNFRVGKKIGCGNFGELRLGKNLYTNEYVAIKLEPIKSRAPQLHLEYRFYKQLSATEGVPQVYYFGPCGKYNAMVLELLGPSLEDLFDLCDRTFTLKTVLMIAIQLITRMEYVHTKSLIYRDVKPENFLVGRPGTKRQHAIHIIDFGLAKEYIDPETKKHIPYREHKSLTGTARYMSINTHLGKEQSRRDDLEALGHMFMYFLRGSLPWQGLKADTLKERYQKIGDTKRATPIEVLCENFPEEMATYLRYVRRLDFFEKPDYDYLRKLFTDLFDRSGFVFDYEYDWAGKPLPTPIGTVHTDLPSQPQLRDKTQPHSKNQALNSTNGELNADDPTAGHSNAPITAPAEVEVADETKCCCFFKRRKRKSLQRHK
EGFR (L858R, T790M), sequence (P00533 25-1210 T790M/L858R): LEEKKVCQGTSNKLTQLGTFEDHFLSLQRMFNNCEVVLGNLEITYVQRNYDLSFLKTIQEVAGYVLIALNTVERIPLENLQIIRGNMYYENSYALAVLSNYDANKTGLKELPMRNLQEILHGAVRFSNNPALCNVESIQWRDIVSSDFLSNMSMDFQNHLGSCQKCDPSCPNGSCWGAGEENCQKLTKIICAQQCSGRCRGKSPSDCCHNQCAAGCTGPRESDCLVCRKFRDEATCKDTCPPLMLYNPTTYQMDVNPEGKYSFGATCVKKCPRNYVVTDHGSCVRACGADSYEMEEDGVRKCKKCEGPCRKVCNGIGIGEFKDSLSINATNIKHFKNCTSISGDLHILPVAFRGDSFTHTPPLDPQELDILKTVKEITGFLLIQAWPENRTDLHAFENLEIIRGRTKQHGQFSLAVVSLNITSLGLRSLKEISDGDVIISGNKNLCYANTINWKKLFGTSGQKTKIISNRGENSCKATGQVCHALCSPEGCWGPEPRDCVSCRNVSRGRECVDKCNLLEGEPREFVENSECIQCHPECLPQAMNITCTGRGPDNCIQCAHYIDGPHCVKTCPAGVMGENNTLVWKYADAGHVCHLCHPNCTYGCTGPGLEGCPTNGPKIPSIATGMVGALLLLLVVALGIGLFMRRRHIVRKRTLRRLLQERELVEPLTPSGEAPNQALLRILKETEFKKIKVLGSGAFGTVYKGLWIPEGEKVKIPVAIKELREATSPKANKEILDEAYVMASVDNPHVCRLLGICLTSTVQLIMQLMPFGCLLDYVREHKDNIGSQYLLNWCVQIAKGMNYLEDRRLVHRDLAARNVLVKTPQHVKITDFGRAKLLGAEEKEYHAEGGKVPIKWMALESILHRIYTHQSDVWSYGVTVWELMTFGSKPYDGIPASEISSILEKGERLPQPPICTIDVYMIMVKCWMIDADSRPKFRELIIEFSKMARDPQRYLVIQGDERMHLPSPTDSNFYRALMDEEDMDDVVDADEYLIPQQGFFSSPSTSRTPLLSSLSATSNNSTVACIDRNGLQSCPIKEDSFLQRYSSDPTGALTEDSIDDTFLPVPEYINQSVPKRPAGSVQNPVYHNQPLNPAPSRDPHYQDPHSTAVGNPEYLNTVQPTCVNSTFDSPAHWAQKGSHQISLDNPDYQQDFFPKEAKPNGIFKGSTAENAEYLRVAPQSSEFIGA
CK1g1, sequence (Q9HCP0 whole entry): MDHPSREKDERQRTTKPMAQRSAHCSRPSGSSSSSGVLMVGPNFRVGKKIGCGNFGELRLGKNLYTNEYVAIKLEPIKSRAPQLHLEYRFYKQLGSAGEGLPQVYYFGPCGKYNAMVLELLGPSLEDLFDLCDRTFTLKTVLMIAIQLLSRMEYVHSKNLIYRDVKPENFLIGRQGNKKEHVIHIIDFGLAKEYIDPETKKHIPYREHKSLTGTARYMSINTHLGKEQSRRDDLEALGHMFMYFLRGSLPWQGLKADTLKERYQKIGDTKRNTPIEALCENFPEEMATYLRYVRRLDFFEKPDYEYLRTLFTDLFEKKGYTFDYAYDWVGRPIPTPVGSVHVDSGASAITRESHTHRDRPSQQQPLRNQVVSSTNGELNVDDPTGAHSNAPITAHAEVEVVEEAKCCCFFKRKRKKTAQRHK
EGFR (d752-759), sequence (P00533 with tags, fused parts or gaps DEL752-759 limits assumed): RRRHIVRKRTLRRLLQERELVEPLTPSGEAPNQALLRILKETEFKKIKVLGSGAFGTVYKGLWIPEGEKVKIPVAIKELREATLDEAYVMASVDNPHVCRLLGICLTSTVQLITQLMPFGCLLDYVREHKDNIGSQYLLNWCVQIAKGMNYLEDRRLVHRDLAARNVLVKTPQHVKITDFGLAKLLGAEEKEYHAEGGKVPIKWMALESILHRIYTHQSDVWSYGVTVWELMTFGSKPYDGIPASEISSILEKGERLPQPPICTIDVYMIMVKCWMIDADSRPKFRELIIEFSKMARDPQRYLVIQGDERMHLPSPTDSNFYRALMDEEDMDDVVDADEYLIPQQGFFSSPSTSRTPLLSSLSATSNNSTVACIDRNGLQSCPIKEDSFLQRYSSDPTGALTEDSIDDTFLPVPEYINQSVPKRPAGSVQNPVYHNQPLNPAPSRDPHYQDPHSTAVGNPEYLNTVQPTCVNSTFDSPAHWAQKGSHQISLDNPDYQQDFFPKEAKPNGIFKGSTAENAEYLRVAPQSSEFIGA
EGFR (d746-750), sequence (P00533 with tags, fused parts or gaps DEL746-750 limits assumed): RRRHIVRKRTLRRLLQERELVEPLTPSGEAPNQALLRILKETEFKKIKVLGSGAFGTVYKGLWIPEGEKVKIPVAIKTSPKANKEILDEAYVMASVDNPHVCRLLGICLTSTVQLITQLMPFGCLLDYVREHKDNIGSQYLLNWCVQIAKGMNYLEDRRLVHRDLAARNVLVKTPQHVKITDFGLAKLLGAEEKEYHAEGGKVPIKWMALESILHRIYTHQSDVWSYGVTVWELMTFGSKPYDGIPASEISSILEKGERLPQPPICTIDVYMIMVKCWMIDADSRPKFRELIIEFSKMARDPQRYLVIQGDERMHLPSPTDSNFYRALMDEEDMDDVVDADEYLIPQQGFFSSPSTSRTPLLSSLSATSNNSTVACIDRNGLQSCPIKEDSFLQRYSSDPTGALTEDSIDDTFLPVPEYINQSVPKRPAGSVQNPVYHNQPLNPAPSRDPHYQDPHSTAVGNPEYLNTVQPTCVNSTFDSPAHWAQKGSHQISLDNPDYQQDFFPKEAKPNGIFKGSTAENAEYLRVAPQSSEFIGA

Row | IC50 (JAK3 [1]; [6]) | JAK3 selectivity vs. STAT5 (JAK3 [1]) | IC50 (JAK3 [1]; [7]) | IC50 (JAK3 [1]; [8]) | IC50 (JAK3 [1]; [9]) | selectivity for JAK3 compared to JAK1, JAK2, and TYK2 (in words) (JAK3 [1]) | IC50 (STAT5; [10]) | IC50 (STAT5; [11]) | IC50 (STAT5; [12]) | IC50 (STAT5; [13]) | IC50 (CK1g1) | IC50 (CK1g2) | IC50 (EGFR (d746-750/T790M)) | IC50 (EGFR (d752-759)) | IC50 (EGFR (L858R, T790M)) | IC50 (JAK3 [2]) | half-life ([3]; first session (before /)) | half-life ([3]; second session (after /)) | IC50 (CYP2C19; first session (before /)) | IC50 (CYP2C19; second session (after /)) | Structure (SMILES) | other results
1 | 0.013 µM | (178X)* | 0.013 µM | 0.01 µM | 0.01 µM | highly selective for JAK3 | 1.2 µM | 1.2 µM | 2.9 µM | 2.9 µM | 588 nM | 248 nM | 87.9 nM | 194 nM | 231 nM | 1.57 nM | 7.3 min | 15 min | > 100 µM | 90 µM | C=CC(=O)Nc1cc(CN2CCN(C)C(=O)C2)cc(-c2cnc3ccccc3n2)c1 [Compound 1a] | IC50 (EGFR (d746-750)): 345 nM; IC50 (EGFR): 370 nM; IC50 (EGFR (L861Q)): 352 nM; IC50 (CYP3A4; first session (before /)): 81.5 µM; IC50 (CYP3A4; second session (after /)): > 100 µM; fraction unbound [4]: 0.223; AC50 [5]: 20000 nM; Minimal Effective Concentration (MEC, uM) (L929 Fibroblasts): 9 µM
2 | 0.013 µM | (370X)* | 0.015 µM | 0.007 µM | 0.007 µM | highly selective for JAK3 | 0.8 µM | 0.8 µM | 2.9 µM | 2.9 µM | 80.2 nM | 9.86 nM | 299 nM | 1030 nM | 653 nM | 1.19 nM | 3.3 min | 6 min | > 100 µM | 95 µM | C=CC(=O)Nc1cc(CC(=O)OC)cc(-c2cnc3ccccc3n2)c1 [Compound 2] | IC50 (CYP3A4; first session (before /)): > 100 µM; IC50 (CYP3A4; second session (after /)): > 100 µM; fraction unbound [4]: 0.123; AC50 [5]: 18000 nM; Minimal Effective Concentration (MEC, uM) (L929 Fibroblasts): 2 µM
3 | 0.016 µM | (382X)* | 0.016 µM | 0.023 µM | 0.023 µM | highly selective for JAK3 | 7.5 µM | 7.5 µM | 7.4 µM | 7.4 µM | 109 nM | 33.3 nM | 996 nM | 3180 nM | 1120 nM | 24.9 nM | 25 min | 84 min | > 100 µM | 59 µM | C=CC(=O)Nc1cc(NS(C)(=O)=O)cc(-c2cnc3ccccc3n2)c1 [Compound 3] | IC50 (CYP3A4; first session (before /)): 89.7 µM; IC50 (CYP3A4; second session (after /)): 51 µM; fraction unbound [4]: 0.054; AC50 [5]: 20000 nM; Minimal Effective Concentration (MEC, uM) (L929 Fibroblasts): 10 µM
4 | 0.018 µM | (392X)* | 0.018 µM | 0.018 µM | 0.018 µM | highly selective for JAK3 | 5.5 µM | 5.5 µM | 8.6 µM | 8.6 µM | 738 nM | 322 nM | 560 nM | 1560 nM | 1320 nM | 0.972 nM | 23 min | 50 min | > 100 µM | > 100 µM | C=CC(=O)Nc1cc(CN2CCNC(=O)C2)cc(-c2cnc3ccccc3n2)c1 [Compound 1b, N-[3-[(3-oxopiperazin-1-yl)methyl]-5-quinoxalin-2-yl-phenyl] prop-2-enamide] | IC50 (EGFR (d746-750)): 2290 nM; IC50 (EGFR): 2860 nM; IC50 (EGFR (L861Q)): 2650 nM; IC50 (CYP3A4; first session (before /)): > 100 µM; IC50 (CYP3A4; second session (after /)): > 100 µM; fraction unbound [4]: 0.317; AC50 [5]: 45000 nM; Minimal Effective Concentration (MEC, uM) (L929 Fibroblasts): 20 µM
